# Assay results taken from US12606568B2, “SMARCA degraders and uses thereof” (Kymera Therapeutics, Inc., priority 2020, dated 2026).
# Key:
# Format in all cases: cell-based
# SMARCA2 [1] = molecular target: T1, SMARCA2 (Homo sapiens, UniProt P51531); assay: SMARCA2 Western blot MV4-11 degradation; set-up: SMARCA2 and SMARCA4 protein degradation in MV4-11 cells; endogenous in cells; host or cells: MV4-11; conditions: for Dmax: MV4-11, MV4-11 cells, read-out: SMARCA2 MSD MV411 degradation 24 h: average Dmax %; for Dmax / DC50: 24 h; for DC50 / SMARCA2 MSD MV411 degradation 24 h: average Dmax %: MV4-11 cells; for DC50: read-out: SMARCA2 MSD MV411 degradation 24 h: Mean external-Abs DC50
# T1 sequence (P51531 whole entry): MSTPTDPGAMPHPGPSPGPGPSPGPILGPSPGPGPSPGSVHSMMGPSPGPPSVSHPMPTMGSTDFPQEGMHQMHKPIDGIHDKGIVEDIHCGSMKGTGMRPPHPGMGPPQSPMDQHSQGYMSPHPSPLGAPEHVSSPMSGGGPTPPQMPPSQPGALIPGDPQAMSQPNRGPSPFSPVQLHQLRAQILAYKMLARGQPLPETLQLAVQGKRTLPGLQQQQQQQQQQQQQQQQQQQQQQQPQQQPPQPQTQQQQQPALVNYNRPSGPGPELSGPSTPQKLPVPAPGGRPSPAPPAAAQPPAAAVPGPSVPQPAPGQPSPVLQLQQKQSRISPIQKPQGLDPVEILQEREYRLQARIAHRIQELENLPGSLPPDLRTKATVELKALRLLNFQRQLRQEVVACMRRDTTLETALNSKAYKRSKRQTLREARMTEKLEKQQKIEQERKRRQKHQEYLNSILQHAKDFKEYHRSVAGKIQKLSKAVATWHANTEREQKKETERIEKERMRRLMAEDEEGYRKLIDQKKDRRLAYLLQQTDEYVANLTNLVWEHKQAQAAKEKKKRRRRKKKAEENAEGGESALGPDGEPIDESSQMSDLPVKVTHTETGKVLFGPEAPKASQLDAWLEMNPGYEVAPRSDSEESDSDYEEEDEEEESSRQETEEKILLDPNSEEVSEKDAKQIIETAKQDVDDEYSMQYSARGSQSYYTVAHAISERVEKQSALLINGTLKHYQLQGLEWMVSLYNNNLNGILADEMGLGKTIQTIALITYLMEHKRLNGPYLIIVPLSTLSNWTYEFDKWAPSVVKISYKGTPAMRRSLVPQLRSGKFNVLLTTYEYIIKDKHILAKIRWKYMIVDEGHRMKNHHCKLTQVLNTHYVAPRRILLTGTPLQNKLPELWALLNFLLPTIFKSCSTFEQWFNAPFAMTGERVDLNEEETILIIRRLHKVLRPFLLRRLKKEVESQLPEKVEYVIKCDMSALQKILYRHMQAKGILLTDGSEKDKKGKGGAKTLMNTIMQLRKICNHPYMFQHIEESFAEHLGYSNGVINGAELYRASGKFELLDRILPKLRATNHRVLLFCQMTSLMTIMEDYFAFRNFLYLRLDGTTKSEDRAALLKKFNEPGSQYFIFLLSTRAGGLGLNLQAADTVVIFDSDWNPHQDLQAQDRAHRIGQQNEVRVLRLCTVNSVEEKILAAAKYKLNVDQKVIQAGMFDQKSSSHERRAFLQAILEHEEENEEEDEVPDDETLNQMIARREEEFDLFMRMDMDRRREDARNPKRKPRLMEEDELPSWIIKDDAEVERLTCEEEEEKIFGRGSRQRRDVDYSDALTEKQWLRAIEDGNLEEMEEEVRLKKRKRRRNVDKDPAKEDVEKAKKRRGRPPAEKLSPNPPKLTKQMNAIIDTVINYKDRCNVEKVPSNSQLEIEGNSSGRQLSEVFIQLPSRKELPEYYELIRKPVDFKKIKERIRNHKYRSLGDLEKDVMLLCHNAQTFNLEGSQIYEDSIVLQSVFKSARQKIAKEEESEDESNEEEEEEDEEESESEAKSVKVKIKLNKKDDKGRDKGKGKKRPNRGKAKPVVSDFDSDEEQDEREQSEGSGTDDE
# SMARCA4 = molecular target: T2, SMARCA4 (Homo sapiens, UniProt P51532); assay: SMARCA4 Western blot MV4-11 degradation; conditions: for Dmax: MV4-11, MV4-11 cells, read-out: SMARCA4 MSD MV411 degradation 24 h: average Dmax %; for Dmax / DC50: 24 h; for DC50 / SMARCA4 MSD MV411 degradation 24 h: average Dmax %: MV4-11 cells; for DC50: read-out: SMARCA4 MSD MV411 degradation 24 h: Mean external-Abs DC50
# T2 construct: SMARCA2 and SMARCA4 protein degradation in MV4-11 cells; endogenous in cells; host or cells: MV4-11
# T2 sequence (P51532 whole entry): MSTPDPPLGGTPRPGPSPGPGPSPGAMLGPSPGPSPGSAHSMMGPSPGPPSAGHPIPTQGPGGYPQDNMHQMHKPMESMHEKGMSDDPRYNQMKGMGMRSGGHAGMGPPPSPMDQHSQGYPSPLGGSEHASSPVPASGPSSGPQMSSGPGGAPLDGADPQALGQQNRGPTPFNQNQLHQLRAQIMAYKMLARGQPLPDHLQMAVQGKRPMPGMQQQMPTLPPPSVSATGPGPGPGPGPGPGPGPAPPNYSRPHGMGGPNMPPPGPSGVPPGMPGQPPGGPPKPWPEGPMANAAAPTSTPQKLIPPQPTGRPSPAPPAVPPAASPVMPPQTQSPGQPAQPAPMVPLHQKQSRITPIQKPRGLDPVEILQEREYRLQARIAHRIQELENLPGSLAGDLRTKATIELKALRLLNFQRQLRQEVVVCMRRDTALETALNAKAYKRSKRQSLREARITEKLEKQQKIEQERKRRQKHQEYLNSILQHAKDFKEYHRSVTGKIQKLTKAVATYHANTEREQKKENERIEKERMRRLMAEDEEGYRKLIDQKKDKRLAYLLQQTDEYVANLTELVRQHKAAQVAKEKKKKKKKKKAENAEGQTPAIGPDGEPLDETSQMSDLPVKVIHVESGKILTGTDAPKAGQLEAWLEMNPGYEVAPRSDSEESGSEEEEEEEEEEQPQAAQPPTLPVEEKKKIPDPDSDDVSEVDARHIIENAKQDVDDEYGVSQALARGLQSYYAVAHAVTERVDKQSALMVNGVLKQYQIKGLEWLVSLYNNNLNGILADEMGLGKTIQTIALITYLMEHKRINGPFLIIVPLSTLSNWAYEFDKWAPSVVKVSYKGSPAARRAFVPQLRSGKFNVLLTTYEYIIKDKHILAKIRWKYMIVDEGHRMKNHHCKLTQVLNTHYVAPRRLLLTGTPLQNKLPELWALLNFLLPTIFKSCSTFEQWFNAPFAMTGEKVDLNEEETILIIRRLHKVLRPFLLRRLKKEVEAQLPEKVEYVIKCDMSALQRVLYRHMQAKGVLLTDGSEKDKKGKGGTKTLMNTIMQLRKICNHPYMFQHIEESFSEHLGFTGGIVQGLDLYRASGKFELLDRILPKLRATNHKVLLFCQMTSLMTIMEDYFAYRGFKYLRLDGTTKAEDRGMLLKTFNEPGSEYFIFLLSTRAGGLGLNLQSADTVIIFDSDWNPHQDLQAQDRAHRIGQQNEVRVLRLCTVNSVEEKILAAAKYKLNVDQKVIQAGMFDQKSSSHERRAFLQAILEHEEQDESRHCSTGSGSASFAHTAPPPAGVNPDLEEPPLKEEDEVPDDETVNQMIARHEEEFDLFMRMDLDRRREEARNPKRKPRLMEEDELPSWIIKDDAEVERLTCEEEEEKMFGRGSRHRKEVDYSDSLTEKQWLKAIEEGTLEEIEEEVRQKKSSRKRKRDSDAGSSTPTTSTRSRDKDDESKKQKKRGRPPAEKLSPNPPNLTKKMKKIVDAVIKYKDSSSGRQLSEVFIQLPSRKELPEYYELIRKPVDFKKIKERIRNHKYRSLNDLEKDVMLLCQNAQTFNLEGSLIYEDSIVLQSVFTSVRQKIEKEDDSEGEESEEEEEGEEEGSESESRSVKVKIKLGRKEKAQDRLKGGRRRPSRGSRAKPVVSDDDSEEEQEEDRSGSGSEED
# SMARCA2 [2] = molecular target: T1, SMARCA2; assay: MSD SMARCA2 degradation in A549 cell line; set-up: endogenous in cells; conditions: for Dmax: A549, A549 cells; for Dmax / DC50: 24 h; for DC50 / SMARCA2 MSD A549 degradation 24 h: Average Dmax %: A549 cells; for DC50: read-out: SMARCA2 MSD A549 degradation 24 h: Average external-Abs DC50
# Method in brief: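 A549 cells treated 24 h with compound, 3-fold series 1000 nM down to 0.152 nM plus DMSO. RIPA lysates captured on MSD plates, probed with rabbit anti-SMARCA2/BRM (1 µg/ml) then SULFO-TAG anti-rabbit, electrochemiluminescence read. DC50 and 24 h Dmax reported as letter bins.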
Structure (SMILES),Dmax (SMARCA2 [1]),DC50 (SMARCA2 [1]),Dmax (SMARCA4),DC50 (SMARCA4),Dmax (SMARCA2 [2]),DC50 (SMARCA2 [2]),SMARCA2 MSD MV411 degradation 24 h: average Dmax % (SMARCA2 [1]),SMARCA4 MSD MV411 degradation 24 h: average Dmax % (SMARCA4),SMARCA2 MSD A549 degradation 24 h: Average Dmax % (SMARCA2 [2])
"Cc1n[nH]c(C)c1-c1ccc(CNC(=O)[C@@H]2C[C@@H](O)CN2C(=O)[C@@H](NC(=O)[C@H]2CC3(C2)C[C@H](N2CCC(c4cnc(N5C6CCC5CN(c5cc(-c7ccccc7O)nnc5N)C6)nc4)CC2)C3)C(C)(C)C)cc1 (stereo partly drawn) [I-31, (2S,4R)-1-((2S)-2-(6-(4-(2-(3-(3-amino-6-(2-hydroxyphenyl)pyridazin-4-yl)-3,8-diazabicyclo[3.2.1]octan-8-yl)pyrimidin-5-yl)piperidin-1-yl)spiro[3.3]heptane-2-carboxamido)-3,3-dimethylbutanoyl)-N-(4-(3,5-dimethyl-1H-pyrazol-4-yl)benzyl)-4-hydroxypyrrolidine-2-carboxamide]",50 to 70%,< 100 nM,< 50%,> 1000 nM,< 50%,–,–,–,–
"Cc1ncsc1-c1ccc(CNC(=O)[C@@H]2C[C@@H](O)CN2C(=O)[C@@H](NC(=O)[C@H]2CCC3(CC2)C[C@H](N2CCC(c4cnc(N5C6CCC5CN(c5cc(-c7ccccc7O)nnc5N)C6)nc4)CC2)C3)C(C)(C)C)cc1 (stereo partly drawn) [I-42, (2S,4R)-1-((2S)-2-(2-(4-(2-(3-(3-amino-6-(2-hydroxyphenyl)pyridazin-4-yl)-3,8-diazabicyclo[3.2.1]octan-8-yl)pyrimidin-5-yl)piperidin-1-yl)spiro[3.5]nonane-7-carboxamido)-3,3-dimethylbutanoyl)-4-hydroxy-N-(4-(4-methylthiazol-5-yl)benzyl)pyrrolidine-2-carboxamide]",70 to 90%,< 100 nM,< 50%,> 1000 nM,70 to 90%,100 to 500 nM,–,–,–
"Cc1ncsc1-c1ccc(CNC(=O)[C@@H]2C[C@@H](O)CN2C(=O)[C@@H](c2cc(OCCCCN3CCC(c4cnc(N5C6CCC5CN(c5cc(-c7ccccc7O)nnc5N)C6)nc4)CC3)no2)C(C)C)cc1 [I-55, (2S,4R)-1-((2R)-2-(3-(4-(4-(2-(3-(3-amino-6-(2-hydroxyphenyl)pyridazin-4-yl)-3,8-diazabicyclo[3.2.1]octan-8-yl)pyrimidin-5-yl)piperidin-1-yl)butoxy)isoxazol-5-yl)-3-methylbutanoyl)-4-hydroxy-N-(4-(4-methylthiazol-5-yl)benzyl)pyrrolidine-2-carboxamide]",> 90%,< 100 nM,> 90%,< 100 nM,> 90%,< 100 nM,–,–,–
"Cc1ncsc1-c1ccc(CNC(=O)[C@@H]2C[C@@H](O)CN2C(=O)[C@@H](NC(=O)N2CCC(N3CCC(c4cnc(N5C6CCC5CN(c5cc(-c7ccccc7O)nnc5N)C6)nc4)CC3)CC2)C(C)(C)C)cc1 [I-59, 4-(2-(3-(3-amino-6-(2-hydroxyphenyl)pyridazin-4-yl)-3,8-diazabicyclo[3.2.1]octan-8-yl)pyrimidin-5-yl)-N—((S)-1-((2S,4R)-4-hydroxy-2-((4-(4-methylthiazol-5-yl)benzyl)carbamoyl)pyrrolidin-1-yl)-3,3-dimethyl-1-oxobutan-2-yl)-[1,4′-bipiperidine]-1′-carboxamide]",< 50%,501 to 1000 nM,< 50%,> 1000 nM,< 50%,> 1000 nM,–,–,–
"Cc1ncsc1-c1ccc(CNC(=O)[C@@H]2C[C@@H](O)CN2C(=O)[C@@H](NC(=O)CN(C)Cc2cnc(N3C4CCC3CN(c3cc(-c5ccccc5O)nnc3N)C4)nc2)C(C)(C)C)cc1 [I-37, (2S,4R)-1-((2S)-2-(2-(((2-(3-(3-amino-6-(2-hydroxyphenyl)pyridazin-4-yl)-3,8-diazabicyclo[3.2.1]octan-8-yl)pyrimidin-5-yl)methyl)(methyl)amino)acetamido)-3,3-dimethylbutanoyl)-4-hydroxy-N-(4-(4-methylthiazol-5-yl)benzyl)pyrrolidine-2-carboxamide]",> 90%,< 100 nM,> 90%,< 100 nM,> 90%,501 to 1000 nM,–,–,–
"Cc1ncsc1-c1ccc(CNC(=O)[C@@H]2C[C@@H](O)CN2C(=O)[C@H](c2cc(OCCCN3CCC(c4cnc(N5C6CCC5CN(c5cc(-c7ccccc7O)nnc5N)C6)nc4)CC3)no2)C(C)C)cc1 [I-52, (2S,4R)-1-((2S)-2-(3-(3-(4-(2-(3-(3-amino-6-(2-hydroxyphenyl)pyridazin-4-yl)-3,8-diazabicyclo[3.2.1]octan-8-yl)pyrimidin-5-yl)piperidin-1-yl)propoxy)isoxazol-5-yl)-3-methylbutanoyl)-4-hydroxy-N-(4-(4-methylthiazol-5-yl)benzyl)pyrrolidine-2-carboxamide]",> 90%,< 100 nM,> 90%,< 100 nM,> 90%,< 100 nM,–,–,–
"Cc1ncsc1-c1ccc(C2(NC(=O)[C@@H]3C[C@@H](O)CN3C(=O)[C@@H](NC(=O)[C@H]3CC4(C3)C[C@H](N3CCC(c5cnc(N6C7CCC6CN(c6cc(-c8ccccc8O)nnc6N)C7)nc5)CC3)C4)C(C)(C)C)CC2)cc1 (single isomer, unassigned) [I-4]",–,< 100 nM,–,< 100 nM,–,100 to 500 nM,A (A (>90% degradation)),A (A (>90% degradation)),A (A (>90% o degradation))
"Cn1nccc1-c1ccc(CNC(=O)[C@@H]2C[C@@H](O)CN2C(=O)[C@@H](NC(=O)[C@H]2CC3(C2)C[C@H](N2CCC(c4cnc(N5C6CCC5CN(c5cc(-c7ccccc7O)nnc5N)C6)nc4)CC2)C3)C(C)(C)C)cc1 (stereo partly drawn) [I-36, (2S,4R)-1-((2S)-2-(6-(4-(2-(3-(3-amino-6-(2-hydroxyphenyl)pyridazin-4-yl)-3,8-diazabicyclo[3.2.1]octan-8-yl)pyrimidin-5-yl)piperidin-1-yl)spiro[3.3]heptane-2-carboxamido)-3,3-dimethylbutanoyl)-4-hydroxy-N-(4-(1-methyl-1H-pyrazol-5-yl)benzyl)-pyrrolidine-2-carboxamide]",–,< 100 nM,–,> 1000 nM,–,100 to 500 nM,B (B (>70-90% degradation)),D (D (<50% degradation)),B (B (>70-90% o degradation))
